Laboratory results from ChEMBL document CHEMBL1201862, “PubChem BioAssay data set” (2004).
The source made the active and inactive calls. For most assays here, no stated cut-off is given here; in the data, actives have a measured IC50 and inactives only a lower limit.

Key:
[1] = target: T1, Apoptotic protease-activating factor 1 (Homo sapiens, UniProt O14727); assay: activation of Apaf-1 mediated apoptosis – fluorescent, uHTS hits, dose response (AID 588554); format: functional
T1 sequence (O14727 whole entry): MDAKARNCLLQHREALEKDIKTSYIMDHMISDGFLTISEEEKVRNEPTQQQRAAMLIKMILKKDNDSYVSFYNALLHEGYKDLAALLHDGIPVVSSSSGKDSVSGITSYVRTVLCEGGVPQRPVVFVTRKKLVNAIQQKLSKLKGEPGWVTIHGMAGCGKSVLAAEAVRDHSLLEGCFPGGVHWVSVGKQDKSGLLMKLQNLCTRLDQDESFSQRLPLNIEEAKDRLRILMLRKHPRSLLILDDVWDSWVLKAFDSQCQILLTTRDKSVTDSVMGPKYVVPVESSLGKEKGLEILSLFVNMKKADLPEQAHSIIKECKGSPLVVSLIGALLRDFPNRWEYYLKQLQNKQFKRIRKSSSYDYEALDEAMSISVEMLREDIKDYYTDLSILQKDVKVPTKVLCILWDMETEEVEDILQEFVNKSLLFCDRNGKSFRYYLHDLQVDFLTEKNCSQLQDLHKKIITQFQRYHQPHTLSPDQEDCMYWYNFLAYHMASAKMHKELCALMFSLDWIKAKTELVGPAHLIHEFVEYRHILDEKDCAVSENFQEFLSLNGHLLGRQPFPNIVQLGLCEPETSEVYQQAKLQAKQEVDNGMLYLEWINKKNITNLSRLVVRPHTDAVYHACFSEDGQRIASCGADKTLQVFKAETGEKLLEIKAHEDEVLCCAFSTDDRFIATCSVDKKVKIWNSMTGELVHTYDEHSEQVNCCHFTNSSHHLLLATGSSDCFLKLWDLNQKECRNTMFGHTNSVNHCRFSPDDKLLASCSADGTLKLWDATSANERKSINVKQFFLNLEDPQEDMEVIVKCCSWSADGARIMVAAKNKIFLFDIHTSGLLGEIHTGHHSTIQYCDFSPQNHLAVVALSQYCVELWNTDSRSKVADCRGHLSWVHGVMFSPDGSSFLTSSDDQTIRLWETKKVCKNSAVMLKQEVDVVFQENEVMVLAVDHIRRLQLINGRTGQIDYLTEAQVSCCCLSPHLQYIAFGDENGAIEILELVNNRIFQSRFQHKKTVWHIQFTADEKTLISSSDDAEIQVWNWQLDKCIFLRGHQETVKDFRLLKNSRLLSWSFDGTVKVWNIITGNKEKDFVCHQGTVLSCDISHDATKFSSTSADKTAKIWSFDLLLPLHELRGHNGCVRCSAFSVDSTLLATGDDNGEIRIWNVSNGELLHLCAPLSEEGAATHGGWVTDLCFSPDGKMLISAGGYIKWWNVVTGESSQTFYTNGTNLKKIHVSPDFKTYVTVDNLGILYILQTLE

[2] = target: T2, Tyrosine-protein phosphatase non-receptor type 22 (Homo sapiens, UniProt Q9Y2R2); format: functional
T2 sequence (Q9Y2R2 whole entry): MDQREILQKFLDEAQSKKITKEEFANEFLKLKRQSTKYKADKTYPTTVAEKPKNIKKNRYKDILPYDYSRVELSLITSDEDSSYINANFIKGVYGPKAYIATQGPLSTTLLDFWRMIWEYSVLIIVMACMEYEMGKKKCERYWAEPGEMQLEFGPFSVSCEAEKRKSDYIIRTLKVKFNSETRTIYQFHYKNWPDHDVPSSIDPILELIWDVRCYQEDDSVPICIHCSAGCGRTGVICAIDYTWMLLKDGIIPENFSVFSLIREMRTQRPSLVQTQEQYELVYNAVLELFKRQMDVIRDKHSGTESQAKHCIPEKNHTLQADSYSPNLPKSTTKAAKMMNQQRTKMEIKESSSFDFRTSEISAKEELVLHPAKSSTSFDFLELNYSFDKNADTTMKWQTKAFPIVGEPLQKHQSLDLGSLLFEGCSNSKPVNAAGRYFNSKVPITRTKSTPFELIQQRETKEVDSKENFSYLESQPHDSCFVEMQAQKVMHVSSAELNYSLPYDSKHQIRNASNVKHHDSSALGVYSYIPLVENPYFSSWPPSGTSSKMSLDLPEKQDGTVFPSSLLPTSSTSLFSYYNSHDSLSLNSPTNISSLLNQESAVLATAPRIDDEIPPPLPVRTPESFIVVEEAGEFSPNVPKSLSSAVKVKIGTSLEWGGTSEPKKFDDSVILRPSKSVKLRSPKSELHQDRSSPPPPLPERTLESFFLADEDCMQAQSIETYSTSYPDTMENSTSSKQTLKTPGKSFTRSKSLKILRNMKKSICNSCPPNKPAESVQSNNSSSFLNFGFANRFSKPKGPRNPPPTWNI

[3] = target: T2, Tyrosine-protein phosphatase non-receptor type 22; assay: SAR LYP1 Fluorescent Assay using OMFP substrate for In Vitro dose response studies - Set 3. [Related pubchem assays (depositor defined):AID1779, AID1784, AID2140, AID2686]; format: functional
[4] = target: T3, Mannose-6-phosphate isomerase (Homo sapiens, UniProt P34949); assay: MPI inhibition at elevated mannose 6-phosphate – biochemical, fluorescence intensity, high mannose 6-phosphate, primary screen (AID 1220)
T3 sequence (P34949 whole entry): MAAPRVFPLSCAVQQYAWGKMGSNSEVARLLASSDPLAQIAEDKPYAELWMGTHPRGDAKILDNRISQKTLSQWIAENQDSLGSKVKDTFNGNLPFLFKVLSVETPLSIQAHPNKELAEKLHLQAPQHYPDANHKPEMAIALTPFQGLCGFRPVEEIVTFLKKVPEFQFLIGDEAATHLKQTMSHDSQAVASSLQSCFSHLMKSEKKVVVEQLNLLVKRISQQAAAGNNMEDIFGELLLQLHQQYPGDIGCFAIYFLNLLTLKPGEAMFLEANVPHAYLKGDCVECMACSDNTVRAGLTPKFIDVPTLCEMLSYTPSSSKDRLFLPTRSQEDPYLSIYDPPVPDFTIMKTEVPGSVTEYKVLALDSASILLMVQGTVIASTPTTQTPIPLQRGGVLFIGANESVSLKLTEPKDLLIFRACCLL

INS1 = assay: INS-1E survival protection against cytokine death – cell-based, luminescence, retest, dose response (AID 449756); format: functional; conditions: Rattus norvegicus, INS1;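 further: cell death triggered by IL-1 beta plus TNF-alpha plus IFN-gamma mixture; protective hits raise ATP signal compared with cytokine alone wells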

SMILES | EC50 [1] | IC50 [2] | IC50 [3] | IC50 [4] | AC50 (INS1)
COc1ccc(/C=C2\SC(=S)N(CCC(=O)Nc3ccc(C(=O)O)cc3)C2=O)cc1OC | 9.36 µM (active) | 3.74 µM (active) | 4.09 µM (active) |  | 
COc1ccc(Nc2ccc3c(c2)=NC2(CCCCC2)[N+]=3[O-])cc1 |  |  |  | > 50 µM (not active) | 1.67 µM (active)
